Results taken from PMC6433648 (British Journal of Pharmacology, 2019).

Key:
[1] = biological target: T1, human Nluc‐A1AR (Homo sapiens, UniProt P30542); experiment: Fluorescent agonist saturation binding in presence/absence of allosteric modulator (NanoBRET); design: expressed in transfected cells; key to B max: Bmax expressed as BRET ratio from saturation fit; details: Human Nluc A1R
T1 sequence (P30542 2-326 limits assumed): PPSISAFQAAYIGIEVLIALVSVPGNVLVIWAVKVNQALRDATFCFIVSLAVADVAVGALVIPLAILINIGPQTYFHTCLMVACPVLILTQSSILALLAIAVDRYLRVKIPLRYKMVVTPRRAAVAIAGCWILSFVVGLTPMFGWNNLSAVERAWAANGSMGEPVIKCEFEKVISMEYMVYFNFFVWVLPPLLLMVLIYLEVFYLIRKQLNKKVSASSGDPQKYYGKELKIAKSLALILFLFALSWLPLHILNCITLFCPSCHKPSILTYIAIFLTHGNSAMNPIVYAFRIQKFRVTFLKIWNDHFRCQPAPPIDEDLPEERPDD
Source text: (§1) Pooled fluorescent agonist saturation assays obtained in the presence and absence of a fixed concentration of allosteric modulator were simultaneously fitted to the following equation: BRET ratio=Bmax×B/B+KD+M×B+C.

[2] = biological target: T2, rat Nluc‐A1AR (Rattus norvegicus, UniProt P25099); experiment: as above; design: expressed in transfected cells; key to B max: Bmax expressed as BRET ratio from saturation fit; details: Rat Nluc A1R
T2 sequence (P25099 2-326 limits assumed): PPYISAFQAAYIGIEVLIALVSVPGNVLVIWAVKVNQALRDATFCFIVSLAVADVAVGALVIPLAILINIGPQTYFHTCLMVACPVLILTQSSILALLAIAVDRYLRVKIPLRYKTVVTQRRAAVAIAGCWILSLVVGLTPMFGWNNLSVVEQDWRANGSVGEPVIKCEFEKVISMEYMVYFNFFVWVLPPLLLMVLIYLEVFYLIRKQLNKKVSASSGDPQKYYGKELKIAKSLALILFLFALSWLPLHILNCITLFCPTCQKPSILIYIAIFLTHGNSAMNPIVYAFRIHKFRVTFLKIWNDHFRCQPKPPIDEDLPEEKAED
Source text: as §1

[3] = biological target: T2, rat Nluc‐A1AR; experiment: NanoBRET competition binding: inhibition of specific binding of CA200645
Experimental: (§2) The fluorescent antagonist saturation, competition‐binding, allosteric modulator binding cooperativity, and the fluorescent agonist saturations in the presence/absence of allosteric modulator assays were performed on the stably transfected HEK293T cells expressing human or rat Nluc‐A1R. The cells were seeded 24 hr before experimentation in white walled, poly‐D‐lysine coated 96‐well microplates (Thermo Scientific, Loughborough, UK) at a density of 25,000 cells per well.
(§3) For each experiment, ligands were added simultaneously, and the 96‐well plate was incubated for 1 hr at 37°C (no CO2). Following this, the Nluc substrate furimazine (Promega) was added to give a final concentration of 10 μM and then incubated for 5 min at 37°C. For all experiments, the luminescence and resulting BRET were measured using the PHERAstar FS plate reader (BMG Labtech) using filtered light emissions at 460 nm (80 nm bandpass) and >610 nm (longpass) at room temperature. The raw BRET ratio was calculated by dividing the >610 nm emission by the 460 nm emission.

[4] = biological target: T2, rat Nluc‐A1AR; experiment: cell-based; details: agonist pIC50, Rat, 25 nM CA200645
Experimental: as §2, §3

[5] = biological target: T1, human Nluc‐A1AR; experiment: cell-based
Experimental: as §2, §3

[6] = biological target: T1, human Nluc‐A1AR; experiment: NanoBRET competition binding: inhibition of specific binding of CA200645; design: expressed in transfected cells; details: for IC50: Nluc‐human A1AR, 25 nM CA200645, HEK293T cells; for Ki: read-out: pK i ± SEM (converted); for concentrations producing a small direct inhibition of CA200645 binding: more evident at the human A1‐receptor
Source text: The IC50 values from competition‐binding curves were used to calculate the K i of the unlabelled ligands using the Cheng–Prusoff equation: Ki=IC50/1+L/KD, where [L] is the concentration of fluorescent ligand in nM, and K D is the dissociation constant of the fluorescent ligand in nM. The K D values used were obtained from the saturation‐binding experiments.

[7] = tested on: human A1‐receptors; design: method as in May et al., 2010; details: PD 81,723 10 μM, CHO cells; ref May et al., 2010; cited from earlier work
[8] = VCP171 0 (control), maximal specific binding (BRET ratio fit)

## O=C(CCCCCNC(=O)COc1ccc(/C=C/C2=[N+]3C(=Cc4ccc(-c5cccs5)n4[B-]3(F)F)C=C2)cc1)NCCCCNc1ncnc2c1ncn2[C@@H]1O[C@H](CO)[C@@H](O)[C@H]1O [ABA‐X‐BY630]
[1]; PD 81,723 0 (control)
  B max: 0.019 ± 0.002
[1]; VCP171 0 (control)
  Kd: 589 nM
[1]; [8]
  B max: 0.019 ± 0.002
[1]; with 10 μM PD 81,723
  B max: 0.035 ± 0.005
[1]; with 10 μM VCP171
  B max: 0.033 ± 0.004
[1]; with 30 μM PD 81,723
  B max: 0.035 ± 0.008
[1]; with 30 μM VCP171
  B max: 0.036 ± 0.003
[2]; PD 81,723 0 (control)
  B max: 0.031 ± 0.002
  Kd: 955 nM
[2]; VCP171 0 (control)
  Kd: 891 nM
[2]; [8]
  B max: 0.031 ± 0.014
[2]; with 10 μM PD 81,723
  B max: 0.040 ± 0.005
[2]; with 10 μM VCP171
  B max: 0.048 ± 0.009
[2]; with 30 μM PD 81,723
  B max: 0.054 ± 0.007
[2]; with 30 μM VCP171
  B max: 0.072 ± 0.021

## CCNC(=O)[C@H]1O[C@@H](n2cnc3c(NCCCCNC(=O)CCCCCNC(=O)COc4ccc(/C=C/C5=[N+]6C(=Cc7ccc(-c8cccs8)n7[B-]6(F)F)C=C5)cc4)ncnc32)[C@H](O)[C@@H]1O [ABEA‐X‐BY630]
[1]; PD 81,723 0 (control)
  B max: 0.007 ± 0.001
  Kd: 977 nM
[1]; VCP171 0 (control)
  Kd: 1020 nM
[1]; [8]
  B max: 0.006 ± 0.001
[1]; with 10 μM PD 81,723
  B max: 0.012 ± 0.003
[1]; with 10 μM VCP171
  B max: 0.013 ± 0.002
[1]; with 30 μM PD 81,723
  B max: 0.016 ± 0.004
[1]; with 30 μM VCP171
  B max: 0.016 ± 0.002
[2]; PD 81,723 0 (control)
  B max: 0.015 ± 0.002
  Kd: 1820 nM
[2]; VCP171 0 (control)
  Kd: 891 nM
[2]; [8]
  B max: 0.010 ± 0.001
[2]; with 10 μM PD 81,723
  B max: 0.018 ± 0.002
[2]; with 10 μM VCP171
  B max: 0.021 ± 0.002
[2]; with 30 μM PD 81,723
  B max: 0.032 ± 0.01
[2]; with 30 μM VCP171
  B max: 0.026 ± 0.003

## N#Cc1c(N)nc(SCc2csc(-c3ccc(Cl)cc3)n2)c(C#N)c1-c1ccc(OCCO)cc1 [Capadenoson, 2‐amino‐6‐[[2‐(4‐chlorophenyl)‐1,3‐thiazol‐4‐yl]methylsulfanyl]‐4‐[4‐(2‐hydroxyethoxy)phenyl]pyridine‐3,5‐dicarbonitrile]
[3]
  IC50: 0.186 µM
  Ki: 0.102 µM
[4]; PD 81,723 0 (control)
  IC50: 275 nM
[4]; VCP171 0 (control)
  IC50: 251 nM
[5]
  IC50: 282 nM
[6]
  IC50: 0.245 µM
  Ki: 0.141 µM

## O=C(Cc1ccccc1)Nc1nc2ccc(Cl)cc2c2nc(-c3ccco3)nn12 [MRS1220, N‐[9‐chloro‐2‐(furan‐2‐yl)‐[1,2,4]triazolo[1,5‐c]quinazolin‐5‐yl]‐2‐phenylacetamide]
[3]
  IC50: 1.95 µM
  Ki: 1.07 µM

## Cc1sc(N)c(C(=O)c2cccc(C(F)(F)F)c2)c1C [PD 81,723, (2‐amino‐4,5‐dimethylthiophen‐3‐yl)(3‐(trifluoromethyl)phenyl)methanone]
[3]
  IC50: > 100 µM
[7]
  effect on dissociation of BY630‐ABA: slow the dissociation
[6]
  concentrations producing a small direct inhibition of CA200645 binding: > 100 µM

## Nc1scc(-c2cccc(C(F)(F)F)c2)c1C(=O)c1ccccc1 [VCP171, (2‐amino‐4‐(3‐(trifluoromethyl)phenyl)thiophen‐3‐yl)(phenyl)methanone]
[3]
  IC50: 129 µM
  Ki: 70.8 µM
[6]
  IC50: 40.7 µM
  concentrations producing a small direct inhibition of CA200645 binding: 10 to 100 µM
  Ki: 23.4 µM

## Nc1sc(-c2ccc(C(=O)NCCCCCCNc3ncnc4c3ncn4[C@@H]3O[C@H](CO)[C@@H](O)[C@H]3O)cc2)c(-c2cccc(C(F)(F)F)c2)c1C(=O)c1ccccc1 [VCP746, 4‐(5‐amino‐4‐benzoyl‐3‐(3‐(trifluoromethyl)phenyl)thiophen‐2‐yl)‐N‐(6‐(9‐((2R,3R,4S,5R)‐3,4‐dihydroxy‐5‐(hydroxylmethyl)tetrahydro‐furan‐2‐yl)‐9H‐purin‐6‐ylamino)hexyl)benzamide]
[3]
  IC50: 17.4 µM
  Ki: 9.55 µM
